Key:
IL-8 = test: HCPt-induced IL-8 secretion in three-dimensional nasal epithelial cultures from an allergic donor, ELISA; type: cell-based, human; conditions: 30 μl of 20 mM HCPt, 16 hours exposure; peak of IL-8 secretion at Day 4
[1] = system: human nasal epithelial cells; test: Cilia beating frequency (CBF) in three-dimensional nasal epithelial cultures from an allergic donor; type: cell-based; conditions: Day 4, versus control

SMILES: [Cl][Pt-2]([Cl])([Cl])([Cl])([Cl])[Cl].[NH4+].[NH4+] [HCPt, Ammonium hexachloroplatinate]
- IL-8 secretion with HCPt alone (IL-8): efficiently induced inflammation
- cilia beating frequency (CBF) with HCPt alone [1]: reduced CBF versus control
